Values of other authors as cited in publication PMC10146264, “Safety, Pharmacokinetic and Pharmacodynamic Evaluation of Teverelix for the Treatment of Hormone-Sensitive Advanced Prostate Cancer: Phase 2 Loading-Dose-Finding Studies” (Medicina, 2023).

Columns and labels:
[1] = system: patients with prostate cancer; conditions: in vivo
[2] = system: patients
From the text: In the United States, cardiovascular disease is the main cause of death for prostate cancer patients, and patients with prostate cancer have a higher risk of death from non-cancer causes than the general population. ADT is associated with a number of cardiometabolic side effects including decreased insulin sensitivity, changes in lipid profile, and an increased risk of thromboembolic and cerebrovascular events. The risk seems to be highest in elderly patients who have had recent cardiovascular events before starting ADT [27]. According to a Scientific Statement issued by the Am ...

Molecule	Incidence of injection-site reactions [1]	Major cardiovascular events, patients ([2]; phase 3 randomized trial, within the first 12 months of treatment) [%]	Major cardiovascular events, HR [95% CI] GnRH antagonist vs GnRH agonist ([2]; phase 3 trial relugolix vs leuprolide, first 12 months of treatment)
Degarelix	~ 40%	–	–
CONC(=O)Nc1ccc(-c2sc3c(c2CN(C)C)c(=O)n(-c2ccc(OC)nn2)c(=O)n3Cc2c(F)cccc2F)cc1 [relugolix]	–	2.9	0.46
